Where a SMILES comes first, the peptide text is derived from it.
Target: T1, human DPP-IV (Homo sapiens, UniProt P27487)
T1 construct: purchased Sigma-Aldrich
Test: DPP-IV inhibitory activity assay with Gly-Pro-AMC as the substrate
Format: biochemical
Conditions: 25 μM
Procedure: The DPP-IV inhibitory activity assay of the sample was performed using Gly-Pro-AMC as the substrate, as previously described. Briefly, 50 µL Gly-Pro-AMC (0.2 mM) was added to a 40 µL sample (dissolved in 100 mM HEPES buffer) and incubated for 10 min at 37 °C. The reaction was initiated by adding 10 µL DPP-IV enzyme solution (10 U/L). After being incubated for 60 min at 37 °C, the reaction was terminated by adding 100 µL sodium acetate buffer (1 M, pH 4.0). The fluorescence intensity of the mixture was measured with an excitation wavelength of 350 nm and an emission wavelength of 440 nm. The control group used the HEPES buffer instead of the sample. The blank group used the HEPES buffer instead of the sample and DPP-IV enzyme solution. The DPP-IV inhibitory activity of the sample was calculated as follows:(2) DPP-IV inhibitory activity (%)=(Ac− Ab) − (As−Ab)/(Ac−Ab)×100% where As, Ac, and Ab are the intensity of the fluorescence of the sample, control, and blank groups, respectively. The half-maximal inhibitory concentration (IC50) of the sample was calculated according to the DPP-IV inhibition activity against the concentrations of the sample. In addition, the type of inhibition of the sample was obtained from the Lineweaver–Burk equation and double reciprocal plots.

T1 sequence (P27487 whole entry): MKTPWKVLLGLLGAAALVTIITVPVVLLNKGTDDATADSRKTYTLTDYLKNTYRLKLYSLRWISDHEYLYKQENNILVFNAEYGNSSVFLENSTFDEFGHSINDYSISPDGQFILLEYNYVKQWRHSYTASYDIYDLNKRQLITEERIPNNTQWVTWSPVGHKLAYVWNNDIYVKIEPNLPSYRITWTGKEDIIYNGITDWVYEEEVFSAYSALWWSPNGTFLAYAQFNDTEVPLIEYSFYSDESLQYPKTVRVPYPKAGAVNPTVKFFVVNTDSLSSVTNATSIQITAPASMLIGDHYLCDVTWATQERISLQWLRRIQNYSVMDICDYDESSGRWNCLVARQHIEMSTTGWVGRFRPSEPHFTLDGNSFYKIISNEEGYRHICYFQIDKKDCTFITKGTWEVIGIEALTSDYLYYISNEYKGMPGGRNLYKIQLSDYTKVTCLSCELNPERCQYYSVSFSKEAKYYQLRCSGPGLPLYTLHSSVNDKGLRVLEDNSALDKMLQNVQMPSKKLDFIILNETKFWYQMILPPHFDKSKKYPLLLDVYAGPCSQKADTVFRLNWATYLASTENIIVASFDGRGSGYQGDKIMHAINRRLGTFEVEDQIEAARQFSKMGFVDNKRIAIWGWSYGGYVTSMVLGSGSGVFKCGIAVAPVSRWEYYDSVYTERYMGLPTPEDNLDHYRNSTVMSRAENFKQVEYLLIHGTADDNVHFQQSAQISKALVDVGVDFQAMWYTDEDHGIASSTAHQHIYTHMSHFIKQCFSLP

Point of comparison: `CC(C)C[C@H](NC(=O)[C@@H]1CCCN1C(=O)[C@@H](N)C(C)C)C(=O)NCC(=O)NCC(=O)N[C@@H](Cc1ccccc1)C(=O)O` [VPLGGF] (H-VPLGGF-OH), inhibition at 25 µM 34 ± 0.76%. Against it:
- CC(C)C[C@H](N)C(=O)N1CCC[C@H]1C(=O)N[C@@H](CCC(N)=O)C(=O)N[C@@H](Cc1c[nH]cn1)C(=O)N[C@@H](Cc1ccc(O)cc1)C(=O)O [LPQHY] (H-LPQHY-OH) — lower, 21.3 ± 4.86%
- CSCC[C@H](N)C(=O)N[C@@H](C)C(=O)NCC(=O)N[C@@H](CCC(N)=O)C(=O)N[C@H](C(=O)N[C@@H](Cc1ccccc1)C(=O)O)C(C)C [MAGQVF] (H-MAGQVF-OH) — lower, 10.4 ± 4.35%
- CC[C@H](C)[C@H](N)C(=O)N1CCC[C@H]1C(=O)N[C@@H](CCC(N)=O)C(=O)N[C@@H](Cc1c[nH]cn1)C(=O)N[C@@H](Cc1ccc(O)cc1)C(=O)O [IPQHY] (H-IPQHY-OH) — higher, 49.4 ± 1.19%
- CC(C)[C@H](NC(=O)[C@H](C)NC(=O)[C@H](C)N)C(=O)N1CCC[C@H]1C(=O)N[C@@H](Cc1ccccc1)C(=O)O [AAVPF] (H-AAVPF-OH) — lower, 5.42 ± 3.61%

Same assay, conditions: 50 μM

Point of comparison: `CC(C)[C@H](NC(=O)[C@H](C)NC(=O)[C@H](C)N)C(=O)N1CCC[C@H]1C(=O)N[C@@H](Cc1ccccc1)C(=O)O` [AAVPF] (H-AAVPF-OH), inhibition at 50 µM 16.7 ± 3.38%. Against it:
- CC(C)C[C@H](N)C(=O)N1CCC[C@H]1C(=O)N[C@@H](CCC(N)=O)C(=O)N[C@@H](Cc1c[nH]cn1)C(=O)N[C@@H](Cc1ccc(O)cc1)C(=O)O [LPQHY] (H-LPQHY-OH) — higher, 37.4 ± 4.24%
- CSCC[C@H](N)C(=O)N[C@@H](C)C(=O)NCC(=O)N[C@@H](CCC(N)=O)C(=O)N[C@H](C(=O)N[C@@H](Cc1ccccc1)C(=O)O)C(C)C [MAGQVF] (H-MAGQVF-OH) — within error, 13 ± 2.11%
- CC[C@H](C)[C@H](N)C(=O)N1CCC[C@H]1C(=O)N[C@@H](CCC(N)=O)C(=O)N[C@@H](Cc1c[nH]cn1)C(=O)N[C@@H](Cc1ccc(O)cc1)C(=O)O [IPQHY] (H-IPQHY-OH) — higher, 66.9 ± 1.46%
- CC(C)C[C@H](NC(=O)[C@@H]1CCCN1C(=O)[C@@H](N)C(C)C)C(=O)NCC(=O)NCC(=O)N[C@@H](Cc1ccccc1)C(=O)O [VPLGGF] (H-VPLGGF-OH) — higher, 55.9 ± 1.86%

Same assay, conditions: 100 μM

Point of comparison: `CSCC[C@H](N)C(=O)N[C@@H](C)C(=O)NCC(=O)N[C@@H](CCC(N)=O)C(=O)N[C@H](C(=O)N[C@@H](Cc1ccccc1)C(=O)O)C(C)C` [MAGQVF] (H-MAGQVF-OH), inhibition at 100 µM 26.7 ± 3.49%. Against it:
- CC(C)C[C@H](N)C(=O)N1CCC[C@H]1C(=O)N[C@@H](CCC(N)=O)C(=O)N[C@@H](Cc1c[nH]cn1)C(=O)N[C@@H](Cc1ccc(O)cc1)C(=O)O [LPQHY] (H-LPQHY-OH) — higher, 62.6 ± 1.21%
- CC[C@H](C)[C@H](N)C(=O)N1CCC[C@H]1C(=O)N[C@@H](CCC(N)=O)C(=O)N[C@@H](Cc1c[nH]cn1)C(=O)N[C@@H](Cc1ccc(O)cc1)C(=O)O [IPQHY] (H-IPQHY-OH) — higher, 82.67 ± 0.74%
- CC(C)[C@H](NC(=O)[C@H](C)NC(=O)[C@H](C)N)C(=O)N1CCC[C@H]1C(=O)N[C@@H](Cc1ccccc1)C(=O)O [AAVPF] (H-AAVPF-OH) — within error, 28.9 ± 2.62%
- CC(C)C[C@H](NC(=O)[C@@H]1CCCN1C(=O)[C@@H](N)C(C)C)C(=O)NCC(=O)NCC(=O)N[C@@H](Cc1ccccc1)C(=O)O [VPLGGF] (H-VPLGGF-OH) — higher, 74.4 ± 0.88%

Same assay, conditions: 200 μM

Point of comparison: `CC(C)C[C@H](N)C(=O)N1CCC[C@H]1C(=O)N[C@@H](CCC(N)=O)C(=O)N[C@@H](Cc1ccc(O)cc1)C(=O)N[C@@H](CCC(N)=O)C(=O)N[C@@H](C)C(=O)O` [LPQYQA] (H-LPQYQA-OH), inhibition at 200 µM 5.59 ± 3.1%. Against it:
- CC(C)C[C@H](N)C(=O)N1CCC[C@H]1C(=O)N[C@@H](CCC(N)=O)C(=O)N[C@@H](Cc1c[nH]cn1)C(=O)N[C@@H](Cc1ccc(O)cc1)C(=O)O [LPQHY] (H-LPQHY-OH) — higher, 80.4 ± 4.84%
- CSCC[C@H](N)C(=O)N[C@@H](C)C(=O)NCC(=O)N[C@@H](CCC(N)=O)C(=O)N[C@H](C(=O)N[C@@H](Cc1ccccc1)C(=O)O)C(C)C [MAGQVF] (H-MAGQVF-OH) — higher, 49.4 ± 1.9%
- CC[C@H](C)[C@H](N)C(=O)N1CCC[C@H]1C(=O)N[C@@H](CCC(N)=O)C(=O)N[C@@H](Cc1c[nH]cn1)C(=O)N[C@@H](Cc1ccc(O)cc1)C(=O)O [IPQHY] (H-IPQHY-OH) — higher, 91 ± 1.2%
- CC(C)[C@H](NC(=O)[C@H](C)NC(=O)[C@H](C)N)C(=O)N1CCC[C@H]1C(=O)N[C@@H](Cc1ccccc1)C(=O)O [AAVPF] (H-AAVPF-OH) — higher, 39.9 ± 2.79%
- CC(C)C[C@H](NC(=O)[C@@H]1CCCN1C(=O)[C@@H](N)C(C)C)C(=O)NCC(=O)NCC(=O)N[C@@H](Cc1ccccc1)C(=O)O [VPLGGF] (H-VPLGGF-OH) — higher, 86.7 ± 1.1%

Same assay, conditions: 400 μM

Point of comparison: `CSCC[C@H](N)C(=O)N[C@@H](C)C(=O)NCC(=O)N[C@@H](CCC(N)=O)C(=O)N[C@H](C(=O)N[C@@H](Cc1ccccc1)C(=O)O)C(C)C` [MAGQVF] (H-MAGQVF-OH), inhibition at 400 µM 67.5 ± 2.97%. Against it:
- CC(C)C[C@H](N)C(=O)N1CCC[C@H]1C(=O)N[C@@H](CCC(N)=O)C(=O)N[C@@H](Cc1ccc(O)cc1)C(=O)N[C@@H](CCC(N)=O)C(=O)N[C@@H](C)C(=O)O [LPQYQA] (H-LPQYQA-OH) — lower, 29.8 ± 2.5%
- CC(C)C[C@H](N)C(=O)N1CCC[C@H]1C(=O)N[C@@H](CCC(N)=O)C(=O)N[C@@H](Cc1c[nH]cn1)C(=O)N[C@@H](Cc1ccc(O)cc1)C(=O)O [LPQHY] (H-LPQHY-OH) — higher, 89.87 ± 0.41%
- CC[C@H](C)[C@H](N)C(=O)N1CCC[C@H]1C(=O)N[C@@H](CCC(N)=O)C(=O)N[C@@H](Cc1c[nH]cn1)C(=O)N[C@@H](Cc1ccc(O)cc1)C(=O)O [IPQHY] (H-IPQHY-OH) — higher, 95.84 ± 0.52%
- CC(C)[C@H](NC(=O)[C@H](C)NC(=O)[C@H](C)N)C(=O)N1CCC[C@H]1C(=O)N[C@@H](Cc1ccccc1)C(=O)O [AAVPF] (H-AAVPF-OH) — lower, 59.8 ± 2.84%
- CC(C)C[C@H](NC(=O)[C@@H]1CCCN1C(=O)[C@@H](N)C(C)C)C(=O)NCC(=O)NCC(=O)N[C@@H](Cc1ccccc1)C(=O)O [VPLGGF] (H-VPLGGF-OH) — higher, 92.67 ± 0.36%

Same assay, conditions: peptides, Gly-Pro-AMC substrate

Point of comparison: `CC(C)C[C@H](NC(=O)[C@@H]1CCCN1C(=O)[C@@H](N)C(C)C)C(=O)NCC(=O)NCC(=O)N[C@@H](Cc1ccccc1)C(=O)O` [VPLGGF] (H-VPLGGF-OH), IC50 40.2 ± 0.95 µM. Against it:
- CSCC[C@H](N)C(=O)N[C@@H](C)C(=O)NCC(=O)N[C@@H](CCC(N)=O)C(=O)N[C@H](C(=O)N[C@@H](Cc1ccccc1)C(=O)O)C(C)C [MAGQVF] (H-MAGQVF-OH) — 5.5-fold higher, 223 ± 6.16 µM
- CC[C@H](C)[C@H](N)C(=O)N1CCC[C@H]1C(=O)N[C@@H](CCC(N)=O)C(=O)N[C@@H](Cc1c[nH]cn1)C(=O)N[C@@H](Cc1ccc(O)cc1)C(=O)O [IPQHY] (H-IPQHY-OH) — 1.6-fold lower, 25.7 ± 1.06 µM
- CC(C)[C@H](NC(=O)[C@H](C)NC(=O)[C@H](C)N)C(=O)N1CCC[C@H]1C(=O)N[C@@H](Cc1ccccc1)C(=O)O [AAVPF] (H-AAVPF-OH) — 7-fold higher, 282 ± 27.2 µM
